Data taken from patent US20250230193A1, “CYCLIC COMPOUND HAVING SELECTIVE KRAS INHIBITORY EFFECT ON HRAS AND NRAS” (CHUGAI SEIYAKU KABUSHIKI KAISHA, priority 2022, published 2025).

Tests used:
[1] = target: GDP-bound NRAS wild-type protein (Homo sapiens, UniProt P01111); test: Binding to NRAS by surface plasmon resonance (SPR), Single Cycle Kinetics; conditions: KD ratio, GDP-bound NRAS wild-type vs GDP-bound KRAS wild-type, SPR
[2] = target: GDP-bound HRAS wild-type protein (Homo sapiens, UniProt P01112); test: Binding to HRAS by surface plasmon resonance (SPR), Single Cycle Kinetics; conditions: KD ratio, GDP-bound HRAS wild-type vs GDP-bound KRAS wild-type, SPR
GDP-bound HRAS wild-type protein, sequence (P01112 whole entry): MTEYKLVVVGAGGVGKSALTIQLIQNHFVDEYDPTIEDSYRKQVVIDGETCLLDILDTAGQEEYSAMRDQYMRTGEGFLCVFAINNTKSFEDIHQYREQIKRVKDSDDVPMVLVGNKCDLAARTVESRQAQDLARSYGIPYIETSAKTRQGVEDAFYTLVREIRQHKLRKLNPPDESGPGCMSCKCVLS

GDP-bound NRAS wild-type protein, sequence (P01111 whole entry): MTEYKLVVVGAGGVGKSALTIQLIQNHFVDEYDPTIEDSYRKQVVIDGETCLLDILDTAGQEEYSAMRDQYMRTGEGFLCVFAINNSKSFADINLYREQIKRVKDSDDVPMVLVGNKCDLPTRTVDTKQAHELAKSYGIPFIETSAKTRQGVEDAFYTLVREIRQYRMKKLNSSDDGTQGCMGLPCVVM

| Structure (SMILES) | NRAS/KRAS (ratio of KD value for NRAS to KD value for KRAS) [1] | HRAS/KRAS (ratio of KD value for HRAS to KD value for KRAS) [2] |
| --- | --- | --- |
| CCO[C@@H]1C[C@H]2C(=O)NC3(CC(C)(C)C3)C(=O)N(C)[C@@H](C3CCCC3)C(=O)N(CC)[C@H](C(=O)N(C)C)CC(=O)N(C)[C@@H](CC(C)C)C(=O)N[C@@H]([C@@H](C)CC)C(=O)NCC(=O)N(C)[C@H]3C/C=C\CCN(C3=O)[C@@H](Cc3ccc(C(F)(F)F)cc3)C(=O)N(C)CC(=O)N[C@@H](CCc3cc(F)c(C(F)(F)F)c(F)c3)C(=O)N2C1 [PP1773] | A (a compound having 10 or more and less than 20 is denoted as A) | A (a compound having 10 or more and less than 20 is denoted as A) |
| CC[C@H](C)[C@@H]1NC(=O)[C@H](CC(C)C)N(C)C(=O)C[C@@H](C(=O)N(C)C)N(C)C(=O)[C@H](C2CCCC2)N(C)C(=O)C2(CC(C)(C)C2)NC(=O)CN(C)C(=O)[C@H](CCc2cc(F)c(C(F)(F)F)c(F)c2)NC(=O)CN(C)C(=O)[C@H](Cc2ccc(C(F)(F)F)cc2)N2CC/C=C\C[C@@H](C2=O)N(C)C(=O)CN(C)C1=O [PP1776] | A (a compound having 10 or more and less than 20 is denoted as A) | A (a compound having 10 or more and less than 20 is denoted as A) |
| CCC[C@H]1C(=O)N[C@@H]([C@@H](C)CC)C(=O)N(C)CC(=O)N(C)[C@H]2C/C=C\CCN(C2=O)[C@@H](Cc2ccc(C(F)(F)F)cc2)C(=O)N(C)CC(=O)N[C@@H](CCc2cc(F)c(C(F)(F)F)c(F)c2)C(=O)N(CC)CC(=O)NC2(CC(C)(C)C2)C(=O)N(C)[C@@H](C2CCCC2)C(=O)N(C)[C@H](C(=O)N(C)C)CC(=O)N1C [PP1777] | A (a compound having 10 or more and less than 20 is denoted as A) | B (a compound having 3 or more and less than 10 is denoted as B) |
| CCO[C@@H]1C[C@H]2C(=O)N(C)C3(CCC3)C(=O)N(C)[C@@H](C3CCCC3)C(=O)N(C)[C@H](C(=O)N(C)C)CC(=O)N(C)[C@@H](CC)C(=O)N[C@@H]([C@@H](C)CC)C(=O)N(C)CC(=O)N(C)[C@H]3C/C=C\CCN(C3=O)[C@@H](Cc3ccc(C(F)(F)F)cc3)C(=O)N(C)CC(=O)N[C@@H](CCc3cc(F)c(C(F)(F)F)c(F)c3)C(=O)N2C1 [PP1779] | A (a compound having 10 or more and less than 20 is denoted as A) | B (a compound having 3 or more and less than 10 is denoted as B) |
| CC[C@H](C)[C@@H]1NC(=O)[C@H](CC)N(C)C(=O)C[C@@H](C(=O)N(C)C)N(C)C(=O)[C@H](C2CCCC2)N(C)C(=O)C2(CCC2)N(C)C(=O)[C@@H]2CCCN2C(=O)[C@H](CCc2cc(F)c(C(F)(F)F)c(F)c2)NC(=O)CN(C)C(=O)[C@H](Cc2ccc(C(F)(F)F)cc2)N2CC/C=C\C[C@@H](C2=O)N(C)C(=O)CN(C)C1=O [PP1780] | A (a compound having 10 or more and less than 20 is denoted as A) | A (a compound having 10 or more and less than 20 is denoted as A) |
| CCO[C@@H]1C[C@H]2C(=O)N(C)C3(CCC3)C(=O)N(C)[C@@H](C3CCCC3)C(=O)N(C)[C@H](C(=O)N(C)C)CC(=O)N(C)[C@@H](CC)C(=O)N[C@@H]([C@@H](C)CC)C(=O)N(C)CC(=O)N(C)[C@H]3C/C=C\CCN(C3=O)[C@@H](Cc3ccc(C)cc3)C(=O)N(C)CC(=O)N[C@@H](CCc3cc(F)c(C(F)(F)F)c(F)c3)C(=O)N2C1 [PP1781] | A (a compound having 10 or more and less than 20 is denoted as A) | B (a compound having 3 or more and less than 10 is denoted as B) |
| CC[C@H](C)[C@@H]1NC(=O)[C@H](CC)N(C)C(=O)C[C@@H](C(=O)N(C)C)N(C)C(=O)[C@H](C2CCCC2)N(C)C(=O)C2(CCC2)N(C)C(=O)[C@@H]2CCCN2C(=O)[C@H](CCc2cc(F)c(C(F)(F)F)c(F)c2)NC(=O)CN(C)C(=O)[C@H](Cc2ccc(C)cc2)N2CC/C=C\C[C@@H](C2=O)N(C)C(=O)CN(C)C1=O [PP1782] | A (a compound having 10 or more and less than 20 is denoted as A) | B (a compound having 3 or more and less than 10 is denoted as B) |
| CCO[C@@H]1C[C@H]2C(=O)N(C)C3(CCC3)C(=O)N(C)[C@@H](C3CCCC3)C(=O)N(C)[C@H](C(=O)N(C)C)CC(=O)N(C)[C@@H](C3CC3)C(=O)N[C@@H]([C@@H](C)CC)C(=O)N(C)CC(=O)N(C)[C@H]3C/C=C\CCN(C3=O)[C@@H](Cc3ccc(C)cc3)C(=O)N(C)CC(=O)N[C@@H](CCc3cc(F)c(C(F)(F)F)c(F)c3)C(=O)N2C1 [PP1783] | A (a compound having 10 or more and less than 20 is denoted as A) | B (a compound having 3 or more and less than 10 is denoted as B) |
| CC[C@H](C)[C@@H]1NC(=O)[C@H](C2CC2)N(C)C(=O)C[C@@H](C(=O)N(C)C)N(C)C(=O)[C@H](C2CCCC2)N(C)C(=O)C2(CCC2)N(C)C(=O)[C@@H]2CCCN2C(=O)[C@H](CCc2cc(F)c(C(F)(F)F)c(F)c2)NC(=O)CN(C)C(=O)[C@H](Cc2ccc(C)cc2)N2CC/C=C\C[C@@H](C2=O)N(C)C(=O)CN(C)C1=O [PP1784] | A (a compound having 10 or more and less than 20 is denoted as A) | B (a compound having 3 or more and less than 10 is denoted as B) |
| CCO[C@@H]1C[C@H]2C(=O)N(C)C3(CCC3)C(=O)N(C)[C@@H](C3CCCC3)C(=O)N(C)[C@H](C(=O)N(C)C)CC(=O)N(C)[C@@H](CC)C(=O)N[C@@H]([C@@H](C)CC)C(=O)N3CCC[C@H]3C(=O)N(C)[C@H]3C/C=C\CCN(C3=O)[C@@H](Cc3ccc(C)cc3)C(=O)N(C)CC(=O)N[C@@H](CCc3cc(F)c(C(F)(F)F)c(F)c3)C(=O)N2C1 [PP1785] | A (a compound having 10 or more and less than 20 is denoted as A) | A (a compound having 10 or more and less than 20 is denoted as A) |
| CC[C@H](C)[C@@H]1NC(=O)[C@H](CC)N(C)C(=O)C[C@@H](C(=O)N(C)C)N(C)C(=O)[C@H](C2CCCC2)N(C)C(=O)C2(CCC2)N(C)C(=O)[C@@H]2CCCN2C(=O)[C@H](CCc2cc(F)c(C(F)(F)F)c(F)c2)NC(=O)CN(C)C(=O)[C@H](Cc2ccc(C)cc2)N2CC/C=C\C[C@@H](C2=O)N(C)C(=O)[C@@H]2CCCN2C1=O [PP1786] | A (a compound having 10 or more and less than 20 is denoted as A) | B (a compound having 3 or more and less than 10 is denoted as B) |
| CC[C@H](C)[C@@H]1NC(=O)[C@H](CC)N(C)C(=O)C[C@@H](C(=O)N(C)C)N(C)C(=O)[C@H](C2CCCC2)N(C)C(=O)C2(CCC2)N(C)C(=O)[C@@H]2C[C@@H](C)CN2C(=O)[C@H](CCc2cc(F)c(C(F)(F)F)c(F)c2)NC(=O)CN(C)C(=O)[C@H](Cc2ccc(C)cc2)N2CC/C=C\C[C@@H](C2=O)N(C)C(=O)CN(C)C1=O [PP1787] | A (a compound having 10 or more and less than 20 is denoted as A) | B (a compound having 3 or more and less than 10 is denoted as B) |
| CC[C@H](C)[C@@H]1NC(=O)[C@H](C2CC2)N(C)C(=O)C[C@@H](C(=O)N(C)C)N(C)C(=O)[C@H](C2CCCC2)N(C)C(=O)C2(CCC2)N(C)C(=O)[C@@H]2C[C@@H](C)CN2C(=O)[C@H](CCc2cc(F)c(C(F)(F)F)c(F)c2)NC(=O)CN(C)C(=O)[C@H](Cc2ccc(C)cc2)N2CC/C=C\C[C@@H](C2=O)N(C)C(=O)CN(C)C1=O [PP1788] | B (a compound having 3 or more and less than 10 is denoted as B) | B (a compound having 3 or more and less than 10 is denoted as B) |
| CC[C@H](C)[C@@H]1NC(=O)[C@H](CC)N(C)C(=O)C[C@@H](C(=O)N(C)C)N(C)C(=O)[C@H](C2CCCC2)N(C)C(=O)C2(CCC2)N(C)C(=O)[C@@H]2C[C@@H](C)CN2C(=O)[C@H](CCc2cc(F)c(C(F)(F)F)c(F)c2)NC(=O)CN(C)C(=O)[C@H](Cc2ccc(C)cc2)N2CC/C=C\C[C@@H](C2=O)N(C)C(=O)[C@@H]2CCCN2C1=O [PP1789] | A (a compound having 10 or more and less than 20 is denoted as A) | A (a compound having 10 or more and less than 20 is denoted as A) |
| CCO[C@@H]1C[C@H]2C(=O)N(C)C3(CCC3)C(=O)N(C)[C@@H](C3CCCC3)C(=O)N(C)[C@H](C(=O)N(C)C)CC(=O)N(C)[C@@H](CC(C)C)C(=O)N[C@@H]([C@@H](C)CC)C(=O)N(C)CC(=O)N(C)[C@H]3C/C=C\CCN(C3=O)[C@@H](Cc3ccc(C)cc3)C(=O)N(C)CC(=O)N[C@@H](CCc3cc(F)c(C(F)(F)F)c(F)c3)C(=O)N2C1 [PP1790] | A (a compound having 10 or more and less than 20 is denoted as A) | B (a compound having 3 or more and less than 10 is denoted as B) |
| CC[C@H](C)[C@@H]1NC(=O)[C@H](CC(C)C)N(C)C(=O)C[C@@H](C(=O)N(C)C)N(C)C(=O)[C@H](C2CCCC2)N(C)C(=O)C2(CCC2)N(C)C(=O)[C@@H]2CCCN2C(=O)[C@H](CCc2cc(F)c(C(F)(F)F)c(F)c2)NC(=O)CN(C)C(=O)[C@H](Cc2ccc(C)cc2)N2CC/C=C\C[C@@H](C2=O)N(C)C(=O)CN(C)C1=O [PP1791] | A (a compound having 10 or more and less than 20 is denoted as A) | A (a compound having 10 or more and less than 20 is denoted as A) |
